The numbers were not newly measured in US10711043B2, “Compositions and vaccines comprising vesicles and methods of using the same” (priority 2013, dated 2020), which cites them from elsewhere.

Structures are written as SMILES.

On to `COc1cc2cc(c1Cl)N(C)C(=O)C[C@H](OC(=O)[C@H](C)N(C)C(C)=O)[C@]1(C)O[C@H]1[C@H](C)[C@@H]1C[C@@](O)(NC(=O)O1)[C@H](OC)/C=C/C=C(\C)C2` [Maytansine, maytansine], for which the solubility result is “insoluble in water and most solvents”.
